According to patent publication US20110076377A1, “ETHOID COMPOUNDS FOR USE AS FOOD ADDITIVES” (UNIVERSITY OF VIRGINIA PATENT FOUNDATION, priority 2007, published 2011):
Residues, ends and D or L forms follow the SMILES beside them.

Columns and labels:
[1] = Comparative stability of aspartame and aspartame ethoid in PBS solution (HPLC-MS); assay type: physicochemical; conditions: for half-life: 65° C., PBS pH 7.5; for Cyclized product (%) / SM (%): AUC at 214 nm; for degradation at the 12 hour time point: FIG. 1, PBS pH 7.5, 65° C.
Procedure: Solutions of Aspartame and Compound 1 were prepared by dissolving 10 mg of the subject dipeptide in 4 ml of PBS, pH=7.5. […] Aliquots (50 μl) were withdrawn at the following times: 0, 24 h, 36 h, 48 h and 60 h, and diluted with 125 μl of methanol/acetonitrile/0.1% TFA.
The samples were analyzed by HPLC-MS, using a Gilson HPLC with dual wavelengths UV detector (214 and 254 nm). The following conditions were employed: column: C18; 4.6×250 mm; 5 μmx 6A; solvent system: H2O-1% TFA/Acetonitrile-1% TFA, 1 ml/min, with a gradient of 10% organic phase to 100% organic phase in 10 minutes, followed by a 10 minute hold at 100% of organic phase. As shown in the reaction schemes above, decomposition proceeds mainly via a cyclization reaction to form the corresponding cyclized product and methanol.
The AUC (at 214 nm) values corresponding to the dipeptide and corresponding cyclized products (aspartame→diketopiperazine and aspartame ethoid→ketooxazine) are summarized in the following Table.
See, e.g., FIG. 1, which provides plots of the logarithm of percent of intact dipeptide remaining over time, in hours, for both aspartame and the methyleneoxy ethoid of aspartame. […] The rate of degradation of the methyleneoxy ethoid of aspartame is time, temperature, and pH dependent.

[2] = reported, background; cited from earlier work
taste-test volunteers = assay: Blind taste test of sweetening potency of aqueous solutions; assay type: in vivo; conditions: aqueous solutions at 1 mg/ml and 5 mg/ml, six volunteers
Procedure: The sweetening potency of Compounds 1 and 2 was established by conducting blind taste tests of aqueous solutions of each of Compound 1 and 2 compared to aqueous solutions of each of sucrose and aspartame at concentrations of both 1 mg/ml and 5 mg/ml. […] Furthermore, Compound 1, the ethoid version of aspartame, was reported to be approximately 5 to 10 times sweeter than aspartame by the taste-test volunteers.

[3] = Solution stability of methyleneoxy ethoid of neotame relative to neotame; assay type: physicochemical; conditions: FIG. 5B, 60° C., PBS pH 7.5, hydrolysis of methyl ester
Procedure: FIGS. 5A and 5B illustrate the temperature stability of an exemplary ethoid of neotame compared to neotame itself. […] FIG. 5B provides a comparison of the rate of degradation of the methyleneoxy ethoid of neotame versus neotame over time at 60° C. in a solution of phosphate buffered saline at pH 7.5. Specifically, FIG. 5B is a plot of the natural logarithm of the concentration of (neotame/neotame ethoid) over time. The decomposition reaction proceeds via hydrolysis of the methyl ester to the corresponding di-carboxylic acid.
The solution stability of Compound 3 at various temperatures was examined and compared to that of neotame.
The major route leading to loss of neotame is hydrolysis of the methyl ester group as shown above. […] The rates of degradation of neotame and the methyleneoxy ethoid of neotame were examined and compared. […] FIG. 5B is a plot comparing the rate of degradation of neotame to that of the corresponding ethoid.

SMILES	half-life [1]	Cyclized product (%) ([1]; PBS pH 7.5, 40° C., time 0 h)	SM (%) ([1]; PBS pH 7.5, 40° C., time 0 h)	Cyclized product (%) ([1]; PBS pH 7.5, 40° C., time 24 h)	SM (%) ([1]; PBS pH 7.5, 40° C., time 24 h)	Cyclized product (%) ([1]; PBS pH 7.5, 40° C., time 36 h)	SM (%) ([1]; PBS pH 7.5, 40° C., time 36 h)	Cyclized product (%) ([1]; PBS pH 7.5, 40° C., time 48 h)	SM (%) ([1]; PBS pH 7.5, 40° C., time 48 h)	Cyclized product (%) ([1]; PBS pH 7.5, 40° C., time 60 h)	SM (%) ([1]; PBS pH 7.5, 40° C., time 60 h)	degradation at the 12 hour time point [1]	sweetness relative to sugar [2]	sweetness compared to sucrose solution (taste-test volunteers)	also measured
COC(=O)[C@H](Cc1ccccc1)NC(=O)[C@@H](N)CC(=O)O [Aspartame, L-aspartyl-L-phenylalanine methyl ester, reference compound] (H-Asp-Phe-OMe)	2.5 h	0%	100%	95%	5%	100%	0%	100%	0%	100%	0%	essentially complete	approximately 150 times		sweetness relative to an equivalent amount of sugar [2]: 150 fold
COC(=O)C(Cc1ccccc1)OCC(N)CC(=O)O (centres unmarked) [Compound 1, asp-CH2—O-phe]	305 h	0%	100%	0%	100%	0%	100%	0%	100%	0%	100%	negligible		significantly sweeter than sugar	sweetness relative to aspartame (taste-test volunteers): several-fold sweeter; phenylalanine formation upon degradation [1]: does not form phenylalanine; diketopiperazine formation upon degradation ([1]; Example 4): no diketopiperazine (dkkp) formation; degradation in solution at 40° C. ([1]; PBS pH 7.5, 40° C., up to 60 h): essentially no degradation was observed; improvement of stability over aspartame ([1]; half lives at 65° C., ethoid versus aspartame): over a hundred-fold
COC(=O)C(Cc1ccccc1)OCC(CC(=O)O)NCCC(C)(C)C (centres unmarked) [Compound 3]															rate of degradation compared to neotame [3]: nearly identical
CC(=O)NC(COC(CCCCN)C(=O)O)Cc1ccccc1 (centres unmarked) [Compound 2, N—Ac-Phe-CH2—O-Lys]														significantly sweeter than sugar	
O=C1NS(=O)(=O)c2ccccc21 [saccharin]													300-450 times		
